Read-outs that look alike come from different tables or passages of the source.
Assays:
Cbl-b = Cbl-b (Homo sapiens (Human), UniProt Q13191); test: Cbl-b displacement assay (Cbl-b inhibition assay), Biological Example 1; format: binding
How it was run: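 Probe displacement read as TR-FRET (520/620 nm) after 1 h with 2 nM streptavidin-terbium and 150 nM BODIPY FL-labelled inhibitor probe, about EC40. Before that, compound in 1% DMSO sat 1 h at room temperature with N-Avitag biotinylated Cbl-b 36–427, 0.5 nM (High) or 0.125 nM (Low), in pH 7.5 HEPES buffer.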

[1] = system: primary human total T-cells; test: T-cell activation, IL-2 secretion, Biological Example 2; format: cell-based; conditions: 48 hours, fold change over baseline; for fold induction at 0.3 µM: 0.3 μM inhibitor; for fold induction at 1 µM: 1 μM inhibitor; for fold induction at 3 µM: 3 μM inhibitor
[2] = system: primary human total T-cells; test: T-cell activation, CD25 surface staining, Biological Example 2; format: cell-based; conditions: 48 hours, fold change over baseline; for fold induction at 0.3 µM: 0.3 μM inhibitor; for fold induction at 1 µM: 1 μM inhibitor; for fold induction at 3 µM: 3 μM inhibitor
[3] = anti-CD3 and anti-CD28 co-stimulation
[4] = anti-CD3 and anti-CD28 co-stimulation, read-out: IL-2 secretion CD3/CD28 1 μM
[5] = anti-CD3 stimulation alone, read-out: IL-2 secretion CD3 1 μM
[6] = anti-CD3 and anti-CD28 co-stimulation, read-out: CD25 staining CD3/CD28 1 μM
[7] = anti-CD3 stimulation alone, read-out: CD25 staining CD3 1 μM
[8] = 0.125 nM Cbl-b final concentration (Low), read-out: Cbl-b activity IC50 (Low)
[9] = read-out: IC50 values in the Cbl-b inhibition assay of Biological Example 1

Sequence of Cbl-b (Q13191 36-427): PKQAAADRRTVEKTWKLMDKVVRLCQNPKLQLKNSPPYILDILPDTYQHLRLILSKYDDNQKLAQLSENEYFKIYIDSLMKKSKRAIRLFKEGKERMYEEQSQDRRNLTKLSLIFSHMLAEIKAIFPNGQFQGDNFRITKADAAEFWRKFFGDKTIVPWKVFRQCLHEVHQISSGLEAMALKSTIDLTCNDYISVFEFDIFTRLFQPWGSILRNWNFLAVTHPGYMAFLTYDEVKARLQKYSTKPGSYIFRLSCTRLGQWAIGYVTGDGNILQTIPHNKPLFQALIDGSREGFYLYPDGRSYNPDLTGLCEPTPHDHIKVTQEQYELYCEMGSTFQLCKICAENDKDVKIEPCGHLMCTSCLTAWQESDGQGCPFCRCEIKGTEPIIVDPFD

SMILES | IC50 (Cbl-b; 0.5 nM Cbl-b final concentration (High), read-out: Cbl-b activity IC50 (High)) | fold induction at 0.3 µM [1, 3] | fold induction at 1 µM [1, 4] | fold induction at 1 µM [1, 5] | fold induction at 3 µM ([1]; anti-CD3 stimulation alone) | fold induction at 0.3 µM [2, 3] | fold induction at 1 µM [2, 6] | fold induction at 1 µM [2, 7] | fold induction at 3 µM ([2]; anti-CD3 stimulation alone) | IC50 (Cbl-b; [8]) | IC50 (Cbl-b; [9])
Cn1cnnc1C[C@]1(c2cccc(NC(=O)c3cc(CN4CCC5(CC5)C4)cc(C4CC4)n3)c2)C[C@H](C#N)C1 [Compound 53, 4-((5-azaspiro[2.4]heptan-5-yl)methyl)-N-(3-((1r,3r)-3-cyano-1-((4-methyl-4H-1,2,4-triazol-3-yl)methyl)cyclobutyl)phenyl)-6-cyclopropylpicolinamide] | < 1 nM | 15 to 20 | 15 to 20 | 0.4 to 0.85 | 0.4 to 0.85 | ≤ 1.24 | ≤ 1.24 | 1 to 1.15 | 1 to 1.15 | – | –
Cn1cnnc1C[C@]1(c2cccc(N3Cc4c(cc(CN5CCCCC(CO)C5)cc4C(F)(F)F)C3=O)c2)C[C@H](C#N)C1 (some centres unmarked) [Compound 48, (1r,3r)-3-(3-(6-((3-(hydroxymethyl)azepan-1-yl)methyl)-1-oxo-4-(trifluoromethyl)isoindolin-2-yl)phenyl)-3-((4-methyl-4H-1,2,4-triazol-3-yl)methyl)cyclobutane-1-carbonitrile] | – | ≤ 15 | > 20 | 0.4 to 0.85 | 0.4 to 0.85 | > 1.39 | > 1.39 | > 1.15 | > 1.15 | 1 to 2 nM | 1 to 2 nM
Cn1cnnc1C[C@]1(c2cccc(N3Cc4c(cc(CN5CCC[C@H](C(F)(F)F)C5)nc4C4CC4)C3=O)c2)C[C@H](C#N)C1 [Compound 49, (1r,3r)-3-(3-(4-cyclopropyl-1-oxo-6-(((S)-3-(trifluoromethyl)piperidin-1-yl)methyl)-1,3-dihydro-2H-pyrrolo[3,4-c]pyridin-2-yl)phenyl)-3-((4-methyl-4H-1,2,4-triazol-3-yl)methyl)cyclobutane-1-carbonitrile] | – | > 20 | > 20 | > 0.85 | > 0.85 | > 1.39 | > 1.39 | > 1.15 | > 1.15 | < 1 nM | < 1 nM
C[C@@H]1CN(Cc2cc3c(c(C(F)(F)F)c2)CN(c2cccc([C@]4(Cc5nncn5C)C[C@@H](C#N)C4)c2)C3=O)C[C@H](C)O1 [Compound 15, (1R,3r)-3-(3-(6-(((2R,6S)-2,6-dimethylmorpholino)methyl)-1-oxo-4-(trifluoromethyl)isoindolin-2-yl)phenyl)-3-((4-methyl-4H-1,2,4-triazol-3-yl)methyl)cyclobutane-1-carbonitrile] | – | ≤ 15 | 15 to 20 | 0.4 to 0.85 | > 0.85 | 1.24 to 1.39 | 1.24 to 1.39 | 1 to 1.15 | 1 to 1.15 | 2 to 5 nM | –

— patent US11530229B2, “Cyano cyclobutyl compounds for CBL-B inhibition and uses thereof” (Nurix Therapeutics, Inc., priority 2019, dated 2022)
